Assay results from PMC2217384 (The Journal of General Physiology, 2003).

Biological target: T1, P2X1 receptor (Rattus norvegicus, UniProt P47824)
T1 sequence (P47824 1-399): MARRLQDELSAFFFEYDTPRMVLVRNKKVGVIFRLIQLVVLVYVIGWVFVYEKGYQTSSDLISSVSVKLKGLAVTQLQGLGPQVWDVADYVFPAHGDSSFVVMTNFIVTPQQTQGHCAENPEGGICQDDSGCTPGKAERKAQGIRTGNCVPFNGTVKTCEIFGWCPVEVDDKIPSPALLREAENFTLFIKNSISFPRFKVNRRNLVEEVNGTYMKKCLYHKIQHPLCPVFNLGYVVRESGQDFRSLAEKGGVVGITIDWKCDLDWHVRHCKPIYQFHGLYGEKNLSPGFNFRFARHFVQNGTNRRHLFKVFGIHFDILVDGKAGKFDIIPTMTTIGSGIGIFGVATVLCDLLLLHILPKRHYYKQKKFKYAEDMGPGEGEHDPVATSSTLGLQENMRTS
Assay: two-electrode voltage clamp in Xenopus oocytes
Assay type: cell-based

- EC50: 0.7 ± 0.06 µM
SMILES: Nc1ncnc2c1ncn2[C@@H]1O[C@H](COP(=O)(O)OP(=O)(O)OP(=O)(O)O)[C@@H](O)[C@H]1O [ATP]
